Test systems include BT-549; LOX IMVI; OVCAR-5; CCRF-CEM; HCC 2998; IGROV-1; Malme-3M; EKVX; TK-10; NCI/ADR-RES; K562; SF-539; HL-60; SNB-19; KM12; PC-3; SF-268; ACHN; NCI-H522.
Experiment in all cases: inhibition of tumour cell growth, NCI panel, 48 h

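Briefly, cells in 96-well plates were exposed to five compound concentrations for 48 h, and endpoints were estimated by linear interpolation. Abbreviation: GI50, concentration required for 50% inhibition of growth.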 Calls of active or inactive are those of the source. Cut-off read from the data, not from the text of the source: active = GI50 up to about 1.1 µM and inactive = higher. Where only a bound is given, the exact number is not on record here.

Consider `Cc1cccc2c(N)c3cccc(C(=O)NCC[N+](C)(C)Cc4ccc(S(C)(=O)=O)cc4)c3nc12`, for which the GI50 was > 100 µM (inactive) in the test on BT-549; 28.8 µM (inactive) in the test with LOX IMVI; > 95.1 µM (inactive) in the test on OVCAR-5; 7.03 µM (inactive) with CCRF-CEM; 46.7 µM (inactive) in the test on HCC 2998; 27.9 µM (inactive) in the test with IGROV-1. In addition, the GI50 is 38.5 µM (inactive) in the test with Malme-3M; > 91.2 µM (inactive) with EKVX; > 89.1 µM (inactive) in the test with TK-10; > 100 µM (inactive) in the test with NCI/ADR-RES; 10.1 µM (inactive) with K562; 32.4 µM (inactive) in the test on SF-539. In addition, the GI50 was 2.8 µM (inactive) in the test on HL-60; 18.7 µM (inactive) in the test on SNB-19; 64.6 µM (inactive) in the test with KM12; 44.2 µM (inactive) with PC-3; 25.1 µM (inactive) in the test with SF-268; 31.4 µM (inactive) in the test with ACHN.

For the molecule `C#C[C@]1(O)CC[C@H]2[C@@H]3CCC4=C/C(=N/OC(=O)c5cccc6c(=O)c7ccccc7[nH]c56)CCC4[C@H]3CC[C@@]21CC` (stereo partly specified), the GI50 in the test with BT-549 is 17 µM (inactive); with LOX IMVI, 15.7 µM (inactive); with NCI-H522 it was 20.8 µM (inactive); in the test with OVCAR-5, > 100 µM (inactive); in the test with CCRF-CEM, 8.05 µM (inactive); with HCC 2998 it was 26.5 µM (inactive). The GI50 is 27.3 µM (inactive) in the test on IGROV-1; 34.7 µM (inactive) with Malme-3M; 22.2 µM (inactive) in the test on EKVX; > 100 µM (inactive) in the test on TK-10; 15.8 µM (inactive) in the test on NCI/ADR-RES; 10.9 µM (inactive) in the test with K562. The GI50 in the test on HL-60 was 2.44 µM (inactive); in the test on SNB-19, 69.3 µM (inactive); in the test on KM12, 20.1 µM (inactive); in the test with PC-3 it was 18.5 µM (inactive); in the test with SF-268, 66.4 µM (inactive); in the test on ACHN, 26.2 µM (inactive).

Consider `CC(C)/C(Cl)=N\OC(=O)Nc1ccc(F)cc1F`, for which the GI50 in the test with BT-549 is 13 µM (inactive); in the test with LOX IMVI, 1.66 µM (inactive); in the test with OVCAR-5 it was 17.4 µM (inactive); in the test with CCRF-CEM it was 0.836 µM (active); with HCC 2998, 18.3 µM (inactive); in the test on IGROV-1, 16 µM (inactive). Also, the GI50 in the test with Malme-3M was 1.66 µM (inactive); with EKVX it was 6.53 µM (inactive); with TK-10 it was 5.19 µM (inactive); in the test with NCI/ADR-RES it was 7.05 µM (inactive); in the test with K562 it was 1.26 µM (inactive); with SF-539 it was 15.8 µM (inactive). For the same molecule, the GI50 in the test on HL-60 was 0.486 µM (active); in the test with SNB-19, 19.5 µM (inactive); with KM12, 17.7 µM (inactive); in the test with PC-3, 17.2 µM (inactive); with SF-268, 19.5 µM (inactive); in the test with ACHN it was 3.36 µM (inactive).

`O=C(O)Cc1cc(O)c(CC(=O)O)cc1O`: the GI50 in the test on BT-549, in the test on LOX IMVI, in the test with NCI-H522, in the test with OVCAR-5, with HCC 2998 and with IGROV-1 was > 100 µM (inactive) each time. Besides, the GI50 in the test on Malme-3M, in the test with EKVX, with TK-10, with NCI/ADR-RES, in the test with K562 and with HL-60 was > 100 µM (inactive) each time. Besides, the GI50 with SNB-19, in the test on KM12, with PC-3, with SF-268 and in the test on ACHN was > 100 µM (inactive) in each case.

The record behind these values is ChEMBL document CHEMBL1201862, “PubChem BioAssay data set” (2004).
